From patent US10829473B2, “Modulators of the cystic fibrosis transmembrane conductance regulator protein and methods of use” (AbbVie Overseas S.Á.R.L., priority 2017, dated 2020)
Where two headings read alike, the source gives them in different places.

Molecular target: T1, F508delCFTR (Homo sapiens, UniProt P13569, DEL508-508)
T1 construct: expressed in transfected cells; host or cells: CFBE41o- human lung derived epithelial cells (CFBE41o-F508delCFTR-HRP), doxycycline-inducible
Assay: Cell Surface Expression-Horse Radish Peroxidase (CSE-HRP) Assay;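 on EC50 (with co-corrector): co-corrector chromenyl benzoic acid corrector at 2 or 3 µM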
Format: cell-based
Details: for Maximum % activity (with co-corrector) / Emax: maximum at any tested concentration; for Emax: read-out: Maximum % activity (without co-corrector)
Outline: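 Corrector compounds were given as 8-point 3-fold series from 20 or 30 μM, with or without a 2 μM co-corrector, for 18-24 h at 33 °C. Surface HRP was read by luminol luminescence as % of positive control; variable-Hill-slope sigmoidal fitting gave EC50 from triplicate plates.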

[1] = test compound alone, without co-corrector, read-out: EC50 (without co-corrector)
[2] = with co-corrector, read-out: EC50 (with co-corrector)

T1 sequence (P13569 with tags, fused parts or gaps DEL508-508): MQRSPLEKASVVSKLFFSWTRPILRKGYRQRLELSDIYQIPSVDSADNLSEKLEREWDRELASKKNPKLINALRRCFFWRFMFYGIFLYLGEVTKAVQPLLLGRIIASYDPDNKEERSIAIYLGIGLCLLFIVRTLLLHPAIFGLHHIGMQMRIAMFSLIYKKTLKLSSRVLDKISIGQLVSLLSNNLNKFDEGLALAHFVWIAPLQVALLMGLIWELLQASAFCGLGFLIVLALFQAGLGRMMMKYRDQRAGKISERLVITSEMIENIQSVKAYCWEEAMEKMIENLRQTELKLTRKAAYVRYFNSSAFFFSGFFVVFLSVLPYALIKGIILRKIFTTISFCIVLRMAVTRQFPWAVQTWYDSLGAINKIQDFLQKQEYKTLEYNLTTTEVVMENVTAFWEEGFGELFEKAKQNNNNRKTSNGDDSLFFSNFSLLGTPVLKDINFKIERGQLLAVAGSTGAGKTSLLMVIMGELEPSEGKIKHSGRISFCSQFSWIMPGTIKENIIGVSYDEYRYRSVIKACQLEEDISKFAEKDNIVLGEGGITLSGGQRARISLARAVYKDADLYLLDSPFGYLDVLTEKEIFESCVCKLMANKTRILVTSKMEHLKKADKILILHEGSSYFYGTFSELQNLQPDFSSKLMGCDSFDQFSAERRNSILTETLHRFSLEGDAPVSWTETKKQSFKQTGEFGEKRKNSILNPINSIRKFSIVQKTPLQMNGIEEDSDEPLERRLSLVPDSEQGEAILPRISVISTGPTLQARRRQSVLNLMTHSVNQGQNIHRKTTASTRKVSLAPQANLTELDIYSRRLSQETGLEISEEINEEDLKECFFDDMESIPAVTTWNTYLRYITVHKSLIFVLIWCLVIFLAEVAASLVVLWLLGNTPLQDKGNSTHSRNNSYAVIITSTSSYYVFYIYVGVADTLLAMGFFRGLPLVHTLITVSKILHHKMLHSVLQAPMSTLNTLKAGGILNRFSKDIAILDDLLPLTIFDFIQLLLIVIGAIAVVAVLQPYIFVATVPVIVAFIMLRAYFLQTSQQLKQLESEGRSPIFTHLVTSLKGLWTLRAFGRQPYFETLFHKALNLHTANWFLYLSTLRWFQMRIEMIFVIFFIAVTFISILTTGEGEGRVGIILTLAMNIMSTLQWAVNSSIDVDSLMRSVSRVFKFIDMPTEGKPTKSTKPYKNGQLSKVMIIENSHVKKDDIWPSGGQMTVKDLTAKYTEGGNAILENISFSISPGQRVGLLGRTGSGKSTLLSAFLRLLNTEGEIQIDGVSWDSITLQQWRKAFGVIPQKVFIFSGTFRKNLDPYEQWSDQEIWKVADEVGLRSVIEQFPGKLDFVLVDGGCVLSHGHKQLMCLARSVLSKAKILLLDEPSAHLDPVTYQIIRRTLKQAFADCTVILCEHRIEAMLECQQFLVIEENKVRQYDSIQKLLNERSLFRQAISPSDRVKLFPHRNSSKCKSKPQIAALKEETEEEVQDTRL

With `O=C(NS(=O)(=O)c1ccccc1)C1(c2ccc(Cl)cc2)CC1` [Example III-33, N-(benzenesulfonyl)-1-(4-chlorophenyl)cyclopropane-1-carboxamide] the EC50 [1] was 3 to 10 µM, the “Maximum % activity (with co-corrector)” value (with co-corrector) was “++ (≥150 and <350)” and the EC50 [2] was 3 to 10 µM. The Emax (without co-corrector) was less than 50%.

With `O=C(NS(=O)(=O)c1ccccc1)C1(c2ccc(Cl)c(Cl)c2)CC1` [Example III-34, N-(benzenesulfonyl)-1-(3,4-dichlorophenyl)cyclopropane-1-carboxamide] the EC50 [1] was greater than 10 µM, the “Maximum % activity (with co-corrector)” value (with co-corrector) was “++ (≥150 and <350)” and the EC50 [2] was greater than 10 µM. It also gave an Emax (without co-corrector) of less than 50%.

In the case of `O=C(NS(=O)(=O)Cc1ccccc1)C1(c2ccccc2F)CC1` [Example III-35, 1-(2-fluorophenyl)-N-(phenylmethanesulfonyl)cyclopropane-1-carboxamide], the EC50 [1] is reported as greater than 10 µM, the “Maximum % activity (with co-corrector)” value (with co-corrector) is reported as “++ (≥150 and <350)” and the EC50 [2] is reported as greater than 10 µM. The Emax (without co-corrector) was less than 50%.

With `O=C(NS(=O)(=O)C1CCS(=O)(=O)C1)C1(c2ccc(Cl)cc2Cl)CC1` (stereo not shown) [Example III-36, 1-(2,4-dichlorophenyl)-N-(1,1-dioxo-1λ^6-thiolane-3-sulfonyl)cyclopropane-1-carboxamide] the EC50 [1] was greater than 10 µM, the “Maximum % activity (with co-corrector)” value (with co-corrector) was “+ (<150)” and the EC50 [2] was greater than 10 µM. It also gave an Emax (without co-corrector) of less than 50%.

With `Cc1ccc(S(=O)(=O)NC(=O)C2(c3ccc(Cl)cc3Cl)CC2)cc1` [Example III-37, 1-(2,4-dichlorophenyl)-N-(4-methylbenzene-1-sulfonyl)cyclopropane-1-carboxamide] the EC50 [1] was greater than 10 µM, the “Maximum % activity (with co-corrector)” value (with co-corrector) was “++ (≥150 and <350)” and the EC50 [2] was 3 to 10 µM. It also gave an Emax (without co-corrector) of less than 50%.

For `O=C(NS(=O)(=O)c1cc([N+](=O)[O-])ccc1Cl)C1(c2cccc(Cl)c2)CC1` [Example III-55, N-(2-chloro-5-nitrobenzene-1-sulfonyl)-1-(3-chlorophenyl)cyclopropane-1-carboxamide], the EC50 [1] was greater than 10 µM, the “Maximum % activity (with co-corrector)” value (with co-corrector) was “+ (<150)” and the EC50 [2] was greater than 10 µM. For the same compound, the Emax (without co-corrector) was less than 50%.

`CCOc1ccc2nc(S(=O)(=O)NC(=O)C3(c4cccc(Cl)c4)CC3)sc2c1` [Example III-56, 1-(3-chlorophenyl)-N-(6-ethoxy-1,3-benzothiazole-2-sulfonyl)cyclopropane-1-carboxamide] was tested, and the EC50 [1] was greater than 10 µM, the “Maximum % activity (with co-corrector)” value (with co-corrector) was “+ (<150)” and the EC50 [2] was greater than 10 µM. For the same compound, the Emax (without co-corrector) was less than 50%.

For `O=C(NS(=O)(=O)c1cccc2c(O)cccc12)C1(c2cccc(Cl)c2)CC1` [Example III-57, 1-(3-chlorophenyl)-N-(5-hydroxynaphthalene-1-sulfonyl)cyclopropane-1-carboxamide], the EC50 [1] was greater than 10 µM, the “Maximum % activity (with co-corrector)” value (with co-corrector) was “+ (<150)” and the EC50 [2] was greater than 10 µM. For the same compound, the Emax (without co-corrector) was less than 50%.

With `CN(C)c1cccc2c(S(=O)(=O)NC(=O)C3(c4cccc(Cl)c4)CC3)cccc12` [Example III-58, 1-(3-chlorophenyl)-N-[5-(dimethylamino)naphthalene-1-sulfonyl]cyclopropane-1-carboxamide] the EC50 [1] was greater than 10 µM, the “Maximum % activity (with co-corrector)” value (with co-corrector) was “++ (≥150 and <350)” and the EC50 [2] was 3 to 10 µM. The Emax (without co-corrector) was less than 50%.

In the case of `O=C(NS(=O)(=O)c1cccnc1)C1(c2ccc(Cl)cc2Cl)CC1` [Example III-59, 1-(2,4-dichlorophenyl)-N-(pyridine-3-sulfonyl)cyclopropane-1-carboxamide], the EC50 [1] is reported as greater than 10 µM, the “Maximum % activity (with co-corrector)” value (with co-corrector) is reported as “+ (<150)” and the EC50 [2] is reported as 3 to 10 µM. For the same compound, the Emax (without co-corrector) was less than 50%.

`CC1(C)CC1(C(=O)NS(=O)(=O)c1ccccc1)c1ccccc1` (stereo not shown) [Example III-61, N-(benzenesulfonyl)-2,2-dimethyl-1-phenylcyclopropane-1-carboxamide] was tested, and the EC50 [1] was greater than 10 µM, the “Maximum % activity (with co-corrector)” value (with co-corrector) was “++ (≥150 and <350)” and the EC50 [2] was 3 to 10 µM. The Emax (without co-corrector) was less than 50%.

`COC(=O)c1ccc(S(=O)(=O)NC(=O)C2(c3ccc(Cl)cc3Cl)CC2)o1` [Example III-62, methyl 5-{[1-(2,4-dichlorophenyl)cyclopropane-1-carbonyl]ulfamoyl}furan-2-carboxylate] was tested, and the EC50 [1] was greater than 10 µM, the “Maximum % activity (with co-corrector)” value (with co-corrector) was “+ (<150)” and the EC50 [2] was greater than 10 µM. The Emax (without co-corrector) was less than 50%.

With `O=C(NS(=O)(=O)c1ccc(Br)s1)C1(c2ccc(Cl)cc2Cl)CC1` [Example III-63, N-(5-bromothiophene-2-sulfonyl)-1-(2,4-dichlorophenyl)cyclopropane-1-carboxamide] the EC50 [1] was greater than 10 µM, the “Maximum % activity (with co-corrector)” value (with co-corrector) was “++ (≥150 and <350)” and the EC50 [2] was 3 to 10 µM. For the same compound, the Emax (without co-corrector) was less than 50%.

In the case of `O=C(NS(=O)(=O)c1cccc(OC(F)(F)F)c1)C1(c2ccc(Cl)cc2Cl)CC1` [Example III-64, 1-(2,4-dichlorophenyl)-N-[3-(trifluoromethoxy)benzene-1-sulfonyl]cyclopropane-1-carboxamide], the EC50 [1] is reported as greater than 10 µM, the “Maximum % activity (with co-corrector)” value (with co-corrector) is reported as “+ (<150)” and the EC50 [2] is reported as greater than 10 µM. For the same compound, the Emax (without co-corrector) was less than 50%.

`COC(=O)c1ccc(Cl)cc1S(=O)(=O)NC(=O)C1(c2ccc(Cl)cc2Cl)CC1` [Example III-66, methyl 4-chloro-2-{[l-(2,4-dichlorophenyl)cyclopropane-1-carbonyl]sulfamoyl}benzoate] was tested, and the EC50 [1] was greater than 10 µM, the “Maximum % activity (with co-corrector)” value (with co-corrector) was “++ (≥150 and <350)” and the EC50 [2] was 3 to 10 µM. The Emax (without co-corrector) was less than 50%.

`O=C(O)c1ccccc1S(=O)(=O)NC(=O)C1(c2ccc(Cl)cc2Cl)CC1` [Example III-67] was tested, and the EC50 [1] was greater than 10 µM, the “Maximum % activity (with co-corrector)” value (with co-corrector) was “+ (<150)” and the EC50 [2] was greater than 10 µM. For the same compound, the Emax (without co-corrector) was less than 50%.

In the case of `O=C(O)c1ccc(Cl)cc1S(=O)(=O)NC(=O)C1(c2ccc(Cl)cc2Cl)CC1` [Example III-68, 4-chloro-2-{[l-(2,4-dichlorophenyl)cyclopropane-1-carbonyl]sulfamoyl}benzoic acid], the EC50 [1] is reported as greater than 10 µM, the “Maximum % activity (with co-corrector)” value (with co-corrector) is reported as “+ (<150)” and the EC50 [2] is reported as less than 3 µM. For the same compound, the Emax (without co-corrector) was less than 50%.

With `O=C(OCc1ccccc1)N1CCC(S(=O)(=O)NC(=O)C2(c3ccc(Cl)c(Cl)c3)CC2)CC1` [Example III-70, benzyl 4-{[1-(3,4-dichlorophenyl)cyclopropane-1-carbonyl]sulfamoyl}piperidine-1-carboxylate] the EC50 [1] was greater than 10 µM, the “Maximum % activity (with co-corrector)” value (with co-corrector) was “+ (<150)” and the EC50 [2] was greater than 10 µM. The Emax (without co-corrector) was less than 50%.

With `O=C(NS(=O)(=O)c1ccccc1)C1(c2cccc(Br)c2)CC1` [Example III-71, N-(benzenesulfonyl)-1-(3-bromophenyl)cyclopropane-1-carboxamide] the EC50 [1] was 3 to 10 µM, the “Maximum % activity (with co-corrector)” value (with co-corrector) was “+++ (≥350)” and the EC50 [2] was 3 to 10 µM. For the same compound, the Emax (without co-corrector) was 50 to 150%.

For `O=C(N1CCc2ccc(S(=O)(=O)NC(=O)C3(c4cccc(Cl)c4)CC3)cc2C1)C(F)(F)F` [Example III-72, 1-(3-chlorophenyl)-N-[2-(trifluoroacetyl)-1,2,3,4-tetrahydroisoquinoline-7-sulfonyl]cyclopropane-1-carboxamide], the EC50 [1] was greater than 10 µM, the “Maximum % activity (with co-corrector)” value (with co-corrector) was “+ (<150)” and the EC50 [2] was greater than 10 µM. For the same compound, the Emax (without co-corrector) was less than 50%.

With `O=C(NS(=O)(=O)c1ccc(-n2cccn2)cc1)C1(c2cccc(Cl)c2)CC1` [Example III-73, 1-(3-chlorophenyl)-N-[4-(1H-pyrazol-1-yl)benzene-1-sulfonyl]cyclopropane-1-carboxamide] the EC50 [1] was greater than 10 µM, the “Maximum % activity (with co-corrector)” value (with co-corrector) was “+ (<150)” and the EC50 [2] was greater than 10 µM. For the same compound, the Emax (without co-corrector) was less than 50%.

In the case of `Cc1ccc(S(=O)(=O)NC(=O)C2(c3cccc(Cl)c3)CC2)cc1C` [Example III-74, 1-(3-chlorophenyl)-N-(3,4-dimethylbenzene-1-sulfonyl)cyclopropane-1-carboxamide], the EC50 [1] is reported as greater than 10 µM, the “Maximum % activity (with co-corrector)” value (with co-corrector) is reported as “+ (<150)” and the EC50 [2] is reported as greater than 10 µM. For the same compound, the Emax (without co-corrector) was less than 50%.

With `O=C1Cc2cc(S(=O)(=O)NC(=O)C3(c4cccc(Cl)c4)CC3)ccc2N1` [Example III-75, 1-(3-chlorophenyl)-N-(2-oxo-2,3-dihydro-1H-indole-5-sulfonyl)cyclopropane-1-carboxamide] the EC50 [1] was greater than 10 µM, the “Maximum % activity (with co-corrector)” value (with co-corrector) was “+ (<150)” and the EC50 [2] was greater than 10 µM. For the same compound, the Emax (without co-corrector) was less than 50%.

`CC(=O)N1CCc2cc(S(=O)(=O)NC(=O)C3(c4cccc(Cl)c4)CC3)ccc21` [Example III-76, N-(1-acetyl-2,3-dihydro-1H-indole-5-sulfonyl)-1-(3-chlorophenyl)cyclopropane-1-carboxamide] was tested, and the EC50 [1] was greater than 10 µM, the “Maximum % activity (with co-corrector)” value (with co-corrector) was “+ (<150)” and the EC50 [2] was greater than 10 µM. It also gave an Emax (without co-corrector) of less than 50%.

With `O=C(NS(=O)(=O)C1CCNCC1)C1(c2ccc(Cl)cc2Cl)CC1` [Example III-77, 1-(2.4-dichlorophcnyl)-N-(piperidine-4-sulfonyl)cyclopropane-1-carboxamide] the EC50 [1] was greater than 10 µM, the “Maximum % activity (with co-corrector)” value (with co-corrector) was “+ (<150)” and the EC50 [2] was greater than 10 µM. It also gave an Emax (without co-corrector) of less than 50%.

In the case of `CC(=O)N1CCC(S(=O)(=O)NC(=O)C2(c3ccc(Cl)cc3Cl)CC2)CC1` [Example III-78, N-(1-acetylpiperidine-4-sulfonyl)-1-(2,4-dichlorophenyl)cyclopropane-1-carboxamide], the EC50 [1] is reported as greater than 10 µM, the “Maximum % activity (with co-corrector)” value (with co-corrector) is reported as “+ (<150)” and the EC50 [2] is reported as greater than 10 µM. The Emax (without co-corrector) was less than 50%.

`O=C(CCc1ccccc1)N1CCC(S(=O)(=O)NC(=O)C2(c3ccc(Cl)cc3Cl)CC2)CC1` [Example III-79, 1-(2,4-dichlorophenyl)-N-[1-(3-phenylpropanoyl)piperidine-4-sulfonyl]cyclopropane-1-carboxamide] was tested, and the EC50 [1] was greater than 10 µM, the “Maximum % activity (with co-corrector)” value (with co-corrector) was “+ (<150)” and the EC50 [2] was 3 to 10 µM. For the same compound, the Emax (without co-corrector) was less than 50%.

For `CC(C)(C)OC(=O)N1CCC(S(=O)(=O)NC(=O)C2(c3ccc(Cl)cc3Cl)CC2)CC1` [Example III-80, tert-butyl 4-{[1-(2,4-dichlorophenyl)cyclopropane-1-carbonyl]sulfamoyl}piperidine-1-carboxylate], the EC50 [1] was greater than 10 µM, the “Maximum % activity (with co-corrector)” value (with co-corrector) was “+ (<150)” and the EC50 [2] was greater than 10 µM. It also gave an Emax (without co-corrector) of less than 50%.
